According to US5545672A, “Treatment of insulin resistance and type 2 diabetes mellitus with a thiol protease inhibitor” (The University of Texas System, priority 1994, dated 1996):
Entries after “also recorded” stand apart in the source; their conditions may differ. Read-outs that look alike come from different tables or passages of the source.

Key:
[1] = tested on: insulin receptor β subunit; test: Insulin-induced proteolysis of insulin receptor β subunit, quantitative immunoblot of membranes and cytosol; format: cell-based; settings: 3T3-C2 fibroblasts, 4 h; for β' FRAGMENT % IN CYTOSOL: normalized to maximum β' after eight hours of insulin
Protocol: Cell monolayers were scraped into 10 mM triethanolamine, 10 mM acetic acid, 1 mM EDTA, pH 7.4. The cells were disrupted in a Dounce homogenizer and subjected to centrifugation at 265,000×g, 70 min. at 4° C. The pellet was retained as cellular membranes and the supernatant was collected as the cytosolic fraction.
The cellular membranes were detergent-extracted and the extracts were subjected to SDS polyacrylamide gel electrophoresis on a 7.5% gel to resolve the intact β subunit (approximate mass 92 kDa).
Transfer of the cellular proteins from the 7.5% acrylamide gel to nitrocellulose was conducted at 18 V for 18 h, and the intact β subunit and β' fragment were detected as previously described (Knutson and Buck, Arch. Biochem. Biophys., 285:197-204, 1991). Briefly, following transfer, the nitrocellulose was blocked by incubation for 1 h with blot buffer (50 mM Tris, 0.2M NaCl, pH 8) containing 4% non-fat dry milk. Following blocking, the nitrocellulose was incubated with an anti-peptide antibody which specifically recognizes the carboxy-terminal 16 amino acid residues of the insulin receptor β subunit. This domain is contained in both the intact β subunit and the β' fragment. This antibody has been fully characterized and affinity purified (Knutson and Buck, ibid.). The antibody concentration was 5 μg/ml in blot buffer containing 1% non-fat dry milk, and the incubation was allowed to proceed for 2 h at room temperature. The unbound antibody was then removed from the nitrocellulose by 3 washes with blot buffer containing 1% non-fat dry milk and 0.05% Tween-20. The nitrocellulose was then incubated with ^125 I-protein A, 0.1 μCi/ml, with the blot buffer containing 1% non-fat dry milk, for 1 h at room temperature. Following a final 5 washes of the nitrocellulose with blot buffer-1% dry milk-0.05% Tween-20, the nitrocellulose was exposed to X-ray film. Autoradiographic intensities were quantitated by densitometric scanning.
Cytosolic β' fragment (approximate mass 61 kDa) was isolated by subjecting the […] to high speed centrifugation, removing the supernatant, subjecting the supernatant to SDS polyacrylamide gel electrophoresis on a 7.5% gel, transferring the cytosolic proteins to nitrocellulose, and detecting the cytosolic β' fragment by quantitative immunoblot (Western blot) analysis as described above. The β' fragment data was normalized to the maximum level of β' fragment detected after eight hours of insulin treatment. The above-described procedure is as described in Knutson, V. P., J. Biol. Chem., 266:15656-15662 (1991).

3T3-L1 adipocytes = test: Insulin resistance in adipocytes: 14C-glucose incorporation into cellular lipid (lipogenesis); format: cell-based; settings: for insulin resistance (insulin stimulation of lipogenesis after preincubation): 3T3-L1 adipocytes, 9 h preincubation with insulin 1.7 μM alone or with E-64 100 μM; for cpm INCORPORATED: 9 h pretreatment (insulin 1.7 μM alone, or insulin 1.7 μM + E-64 100 μM); for FOLD STIMULATION: pretreatment as above
Protocol: Intact monolayers of 3T3-L1 adipocytes were preincubated in the absence of insulin (control) or for nine hours in the presence of 1.7 μM insulin to induce cellular insulin resistance. […] Following preincubation, the treated monolayers were extensively washed to remove any insulin present from the preincubation period. The monolayers were then incubated with insulin, 0, 0.05, or 10 nM for 30 minutes, followed by the addition of 14C-glucose at a final concentration of 25 mM. Incorporation of the radiolabeled glucose proceeded for 30 minutes, after which the cells were washed, lysed, and the cellular lipids extracted into chloroform:methanol (2:1). The amount of radiolabel incorporated into the cellular lipid was then quantified by liquid scintillation counting, and the results are shown in Table 2. This assay procedure is described in Tarlow et al., J. Cell Biol., 73:332-353, 1977.

[2] = tested on: insulin receptor β subunit; settings: cultured cells chronically treated with high insulin; Knutson, J. Biol. Chem. 266, 1991; cited from earlier work
Zucker fatty rats = settings: for SERUM TG: Zucker fatty rats
Text: (§1) The injection protocol was initiated when the rats were 14 weeks old, a time when their insulin resistant state was fully manifest. Blood was drawn from the animals at intervals before the beginning of the injection schedule, and at at least one week intervals after initiating the injections. On the first day of the protocol, the fatty rats weighed an average of 416 grams.

lean Zucker rats = settings: 2.5 mg/kg I.P. every 24 h, data not shown
Text: as §1

[3] = agent alone (insulin 1.7 μM; leupeptin 10 μg/ml; E-64 100 μM), control 100 ± 13

| Compound | β SUBUNIT % IN MEMBRANES [1, 3] [%] | β' FRAGMENT % IN CYTOSOL ([1]; agent alone, control 8 ± 5) | β' FRAGMENT % IN CYTOSOL ([1]; inhibitor + insulin 1.7 μM) | insulin resistance (insulin stimulation of lipogenesis after preincubation) (3T3-L1 adipocytes) | cpm INCORPORATED (3T3-L1 adipocytes; then insulin 0 nM) [cpm] | cpm INCORPORATED (3T3-L1 adipocytes; then insulin 0.05 nM) [cpm] | cpm INCORPORATED (3T3-L1 adipocytes; then insulin 10 nM) [cpm] | FOLD STIMULATION (3T3-L1 adipocytes; insulin 0 nM (baseline)) [fold] | FOLD STIMULATION (3T3-L1 adipocytes; insulin 0.05 nM) [fold] | FOLD STIMULATION (3T3-L1 adipocytes; insulin 10 nM) [fold] | also measured |
| --- | --- | --- | --- | --- | --- | --- | --- | --- | --- | --- | --- |
| CC(=O)N[C@@H](CC(C)C)C(=O)N[C@@H](CC(C)C)C(=O)N[C@H](C=O)CCCNC(=N)N [Leupeptin, leupeptin] | 97 ± 7 | Trace | Not detectable |  |  |  |  |  |  |  | β SUBUNIT % IN MEMBRANES ([1]; inhibitor + insulin 1.7 μM (leupeptin 10 μg/ml; E-64 100 μM)): 120 ± 17%; β SUBUNIT % IN MEMBRANES ([1]; inhibitor + insulin 1.7 μM (leupeptin 10 μg/ml; E-64 100 μM), listed as leupeptin): prevented insulin-induced loss; β' FRAGMENT % IN CYTOSOL ([1]; inhibitor + insulin 1.7 μM, listed as leupeptin): prevented generation |
| insulin | 80 ± 7 | 62 ± 6% |  | no subsequent stimulation of lipogenesis | 1600 | 1900 | 1800 | 1 | 1.2 | 1.1 | β SUBUNIT % IN MEMBRANES ([1]; agent alone (insulin 1.7 μM; leupeptin 10 μg/ml; E-64 100 μM), control 100 ± 13, listed as insulin): decreased; β' FRAGMENT % IN CYTOSOL ([1]; agent alone, control 8 ± 5, listed as insulin): increased |
| CC(C)C[C@H](NC(=O)[C@H]1O[C@@H]1C(=O)O)C(=O)NCCCCN=C(N)N [E-64, L-transepoxysuccinyl-leucylamido (4-guanidino) butane] | 143 ± 7 | Trace | Not detectable; also recorded: non-detectable | ameliorated | 600 | 1100 | 3100 | 1 | 1.8 | 5.2 | production of the insulin receptor fragment β' [2]: inhibited; effect on the increase in triglyceride levels found in control Zucker fatty rats (Zucker fatty rats; 2.5 mg/kg I.P. every 24 h): prevented the increase; effect on insulin resistant state in Zucker fatty rats (Zucker fatty rats; 2.5 mg/kg I.P. every 24 h, 90 days): reduced but did not reverse; SERUM TG (Zucker fatty rats; 2.5 mg/kg I.P. every 24 h, day 28, n = 3): 798 ± 269 mg/dL; SERUM TG (Zucker fatty rats; 2.5 mg/kg I.P. every 24 h, day 56, n = 3): 1045 ± 443 mg/dL; SERUM TG (Zucker fatty rats; 2.5 mg/kg I.P. every 24 h, day 89, n = 3): 1093 ± 301 mg/dL; SERUM TG (Zucker fatty rats; day -4 of protocol (before injections), n = 3): 1009 ± 157 mg/dL; effect on triglyceride levels in lean rats (lean Zucker rats): no effect |
